According to article PMC10578347 (Journal of Medicinal Chemistry, 2023):
“Also recorded” adds a separate entry of the source.

Assays:
[1] = test system: TH, VMAT2, SOD1/2 mRNA expression in N27 rat dopaminergic neural cells; type: cell-based
[2] = molecular target: Nurr1 LBD; settings: cited from earlier work
[3] = molecular target: Nurr1 LBD (Homo sapiens, UniProt P43354); test: Isothermal titration calorimetry; type: binding; settings: ITC, 25 °C, recombinant Nurr1 LBD
[4] = test system: HEK293T cells; test: WST-8 cytotoxicity assay; type: cell-based; settings: stable Renilla luciferase activity and WST-8 assay; 100 μM
[5] = molecular target: T1, NOR-1 (NR4A3) (Homo sapiens, UniProt Q92570); type: cell-based
T1 sequence (Q92570 394-623 limits assumed): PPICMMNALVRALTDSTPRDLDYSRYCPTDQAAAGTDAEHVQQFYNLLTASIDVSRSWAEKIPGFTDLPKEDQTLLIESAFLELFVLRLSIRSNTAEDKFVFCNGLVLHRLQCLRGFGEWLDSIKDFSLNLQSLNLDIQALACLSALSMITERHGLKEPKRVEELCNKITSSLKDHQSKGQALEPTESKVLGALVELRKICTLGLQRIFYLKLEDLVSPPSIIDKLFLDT

[6] = Glutathione reactivity assay; type: physicochemical; settings: 125 μM compound, 2.5 mM GSH in PBS at 37 °C, up to 24 h
[7] = test system: nuclear receptors outside the NR4A family (THRα, RARα, PPARγ, revERBα, RORγ, VDR, LXRα, FXR, RXRα); type: cell-based
[8] = molecular target: Nur77 (NR4A1) (Homo sapiens, UniProt P22736); type: cell-based
[9] = test system: TH and VMAT2 mRNA expression in T98G cells; type: cell-based, human

Nur77 (NR4A1), sequence (P22736 360-595 limits assumed, species assumed): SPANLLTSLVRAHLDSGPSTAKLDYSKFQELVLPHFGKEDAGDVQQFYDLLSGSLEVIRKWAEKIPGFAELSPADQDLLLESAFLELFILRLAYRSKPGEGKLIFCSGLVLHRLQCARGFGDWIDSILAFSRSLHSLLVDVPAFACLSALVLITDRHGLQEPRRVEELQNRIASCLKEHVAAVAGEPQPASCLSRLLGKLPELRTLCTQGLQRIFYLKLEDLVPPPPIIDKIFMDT
Nurr1 LBD (Homo sapiens, UniProt P43354), sequence (P43354 360-598): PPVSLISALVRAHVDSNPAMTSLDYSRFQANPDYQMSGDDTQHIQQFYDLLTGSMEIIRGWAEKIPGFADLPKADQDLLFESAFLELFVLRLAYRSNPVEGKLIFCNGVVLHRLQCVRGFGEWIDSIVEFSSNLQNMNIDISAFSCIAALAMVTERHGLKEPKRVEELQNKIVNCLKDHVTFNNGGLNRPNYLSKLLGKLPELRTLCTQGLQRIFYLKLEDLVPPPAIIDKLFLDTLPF

Row | Compound | TH, VMAT, SOD1/2 expression [1] | Kd [3] | effect on cell viability [4] | further results
1 | Clc1ccc2[nH]ccc2c1 [2b, 5-chloro-1H-indole] | induced | – | – | Kd [2]: 15 µM
2 | CC(C)N1CCC(NC(=O)c2cc3[nH]ccc3cc2Cl)CC1 [5e] | – | no detectable interaction; also recorded: no binding^c | no pronounced effect on cell viability | –
3 | CC1CCN(CCCNC(=O)c2cc3[nH]ccc3cc2Cl)CC1 [5m] | – | no detectable interaction; also recorded: no binding^c | no pronounced effect on cell viability | –
4 | CN(C)CCOc1ccc(Cl)cc1NC(=O)c1cc2[nH]ccc2cc1Cl [5o, 5-Chloro-N-{5-chloro-2-[2-(dimethylamino)ethoxy]phenyl}-1H-indole-6-carboxamide] | induced | – | no pronounced effect on cell viability | activity on NOR-1 (NR4A3) [5]: preference for Nurr1 over the related NR4A receptors; also recorded: no NOR-1 (NR4A3) activation; stability against reaction with glutathione (GSH) [6]: stable; also recorded: High stability; modulation of nuclear receptors outside the NR4A family [7]: did not modulate; also recorded: No nuclear receptor modulation; activity on Nur77 (NR4A1) [8]: preference for Nurr1 over the related NR4A receptors; also recorded: preference of 5o for Nurr1 over Nur77; Nurr1-regulated mRNA expression of TH and VMAT2 [9]: induced
5 | O=C(NCCN1CCC2CCCCC2C1)c1cc2[nH]ccc2cc1Cl (centres unmarked) [5r] | – | – | no pronounced effect on cell viability | –
6 | CCN(CC)C1CCC(NC(=O)c2cc3[nH]ccc3cc2Cl)CC1 (centres unmarked) [5t] | – | no detectable interaction; also recorded: no binding^c | no pronounced effect on cell viability | –
7 | CCCCN1CCC(CNC(=O)c2cc3[nH]ccc3cc2Cl)C1 (centres unmarked) [5v] | – | – | no pronounced effect on cell viability | –
8 | Oc1cc2cc[nH]c2cc1O [DHI (2a), 5,6-dihydroxyindole] | generally weaker effects | – | – | TH expression [1]: downregulated
9 | CN(C)CCOc1ccc(Cl)cc1Nc1ccnc2cc(Cl)ccc12 [compound 13, 7-Chloro-N-{5-chloro-2-[2-(dimethylamino)ethoxy]phenyl}quinolin-4-amine] | induced | – | – | activity on NOR-1 (NR4A3) [5]: preference over NOR-1; also recorded: less active on NOR-1; modulation of nuclear receptors outside the NR4A family [7]: did not modulate; also recorded: No nuclear receptor modulation; activity on Nur77 (NR4A1) [8]: activated Nurr1 and Nur77 with equal potency
